Results: publication PMC6703856 (Biochemistry, 2019)
Read-outs that look alike come from different tables or passages of the source.

Assays:
[1] = system: NBD-labelled MBP (cysteine mutation at Ser337); format: binding, Escherichia coli
MBP I329W mutant = MBP I329W mutant (Escherichia coli, UniProt P0AEX9, I355W); experiment: Maltose fluorescence titration, peak wavelength of tryptophan fluorescence; format: binding; conditions: I329W mutant relative to wild-type protein

OC[C@H]1O[C@H](O[C@H]2[C@H](O)[C@@H](O)C(O)O[C@@H]2CO)[C@H](O)[C@@H](O)[C@@H]1O (mixture of isomers) [maltose]
weakening of maltose affinity by the NBD dye ([1]; monitored by NBD fluorescence intensity): 24 fold | weakening of maltose affinity by the NBD dye ([1]; monitored by peak wavelength of tryptophan fluorescence): 5 fold | increase in maltose binding affinity (MBP I329W mutant): 100 fold

bovine serum albumin [BSA]
increase in maltose Kd;app ([1]; 100 g/L BSA, NBD fluorescence): 16 fold
